Literature values, collected in patent US11793981B2, “Microneedle device for control of thyroid hormone levels” (priority 2020, dated 2023).
Like-named read-outs stand apart in the source and are kept apart here.

Legend:
[1] = hypothyroid patients receiving LT4
hypothyroidism = details: LT4-treated patients, despite supposedly adequate LT4 treatment
[2] = pregnancy

SMILES	half-life (oral LT3)	lower serum levels of T3 [1]	patients with residual symptoms of hypothyroidism and lower well-being (hypothyroidism)	half-life (oral LT4)	crossing of the placenta [2]
N[C@@H](Cc1cc(I)c(Oc2ccc(O)c(I)c2)c(I)c1)C(=O)O [LT3, liothyronine]	hours to two days				
N[C@@H](Cc1cc(I)c(Oc2cc(I)c(O)c(I)c2)c(I)c1)C(=O)O [LT4, levothyroxine]		about 10%	10-20%	about seven	crosses the placenta
